PubChem BioAssay AID651865 (The Scripps Research Institute Molecular Screening Center, 2012)

Molecular target: Protein-arginine deiminase type-2 (Homo sapiens) (UniProt Q9Y2J8)
Assay: PubChem AID 651865
Conditions: recombinant PAD2, BAEE citrulline colorimetric, inactivation kinetics; active compounds read high

Protein-arginine deiminase type-2 (Homo sapiens), sequence (Q9Y2J8 whole entry, looked up): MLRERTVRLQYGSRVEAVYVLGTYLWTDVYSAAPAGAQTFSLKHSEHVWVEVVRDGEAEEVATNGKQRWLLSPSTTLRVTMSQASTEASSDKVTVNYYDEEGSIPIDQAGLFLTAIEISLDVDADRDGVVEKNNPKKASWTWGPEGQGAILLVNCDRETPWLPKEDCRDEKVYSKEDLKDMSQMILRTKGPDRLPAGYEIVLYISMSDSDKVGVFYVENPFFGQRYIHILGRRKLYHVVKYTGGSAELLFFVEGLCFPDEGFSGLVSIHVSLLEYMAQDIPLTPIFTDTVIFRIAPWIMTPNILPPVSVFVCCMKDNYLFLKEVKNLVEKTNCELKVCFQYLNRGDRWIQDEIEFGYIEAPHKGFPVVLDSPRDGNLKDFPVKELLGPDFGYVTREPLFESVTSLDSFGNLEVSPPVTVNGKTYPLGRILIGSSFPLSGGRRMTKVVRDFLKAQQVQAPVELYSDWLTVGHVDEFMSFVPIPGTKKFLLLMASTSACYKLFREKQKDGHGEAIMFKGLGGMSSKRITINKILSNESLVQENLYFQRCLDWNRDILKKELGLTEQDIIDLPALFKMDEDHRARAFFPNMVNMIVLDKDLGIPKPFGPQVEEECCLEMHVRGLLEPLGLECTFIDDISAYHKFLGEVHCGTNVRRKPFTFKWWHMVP

kinact/KI: 122 M⁻¹ s⁻¹
SMILES: NC1=CC(=O)c2ccc(-c3cccc(C(=O)O)n3)nc2C1=O
